Laboratory results reported in patent US20250352668A1, “AAV VECTOR ENCODING DIAMINE OXIDASE AND USES THEREOF” (OYSTER POINT PHARMA, INC., priority 2022, published 2025).

Tests used:
nAChR subtype alpha7 [1] = biological target: T1, nAChR subtype alpha7 (Homo sapiens, UniProt P36544); conditions: cited from earlier work
T1 construct: expressed in transfected cells

[2] = biological target: T2, nAChR subtype alpha3alpha5beta4 (Homo sapiens, UniProt P30926+P32297); conditions: cited from earlier work
T2 construct: expressed in transfected cells

[3] = biological target: T3, nAChR subtype alpha4beta2 (Homo sapiens, UniProt P17787+P43681); conditions: cited from earlier work
T3 construct: expressed in transfected cells

[4] = biological target: T4, nAChR subtype alpha6beta2 (Homo sapiens, UniProt P17787+Q15825); conditions: cited from earlier work
T4 construct: expressed in transfected cells

[5] = biological target: T5, nAChR subtype alpha4alpha6beta2 (Homo sapiens, UniProt P17787+P43681+Q15825); conditions: cited from earlier work
T5 construct: expressed in transfected cells

[6] = biological target: T6, nAChR subtype alpha3beta4 (Homo sapiens, UniProt P30926+P32297); conditions: cited from earlier work
T6 construct: expressed in transfected cells

[7] = biological target: T7, nAChR subtype alpha3beta2 (Homo sapiens, UniProt P17787+P32297); conditions: cited from earlier work
T7 construct: expressed in transfected cells

nAChR subtype alpha7 [8] = biological target: T1, nAChR subtype alpha7; assay: nAChR agonist response (ACh-normalised evoked current), subtype alpha7; assay type: cell-based; conditions: 300 micromolar concentration
Excerpt: In general, a nAChR agonist is a full agonist if it evokes a response upon binding to a given receptor that is equal or greater to that of ACh.
nAChR agonist response, from which receptor activation can be determined can, for example, be generated using an appropriate cell-based assay. Cells designed to express a particular nAChR receptor subtype and generate an electrical current response when bound to and activated by a nAChR agonist can be used to characterize the agonist profile of a compound and the amount of receptor activation thus determined. An example of a generic protocol is described below.
Cells that express a particular human nAChR subtype are first exposed to ACh. ACh binds and activates the receptor, thereby evoking a current. The concentration of the ACh is chosen to elicit the maximum response of the receptor (e.g., 1280 micromolar ACh). This current is recorded as the ACh response and serves as the 100% nAChR agonist response and to which responses to other nAChR agonists are compared. […]
The current evoked by exposure to the nAChR agonist is measured and recorded for each nAChR concentration. […] The nAChR agonist response is then calculated as a percentage of the ACh response.
A nAChR agonist evoking a response equal to or greater than the maximum ACh response determined at the same receptor type is a full agonist. […]

T1 sequence (P36544 23-502): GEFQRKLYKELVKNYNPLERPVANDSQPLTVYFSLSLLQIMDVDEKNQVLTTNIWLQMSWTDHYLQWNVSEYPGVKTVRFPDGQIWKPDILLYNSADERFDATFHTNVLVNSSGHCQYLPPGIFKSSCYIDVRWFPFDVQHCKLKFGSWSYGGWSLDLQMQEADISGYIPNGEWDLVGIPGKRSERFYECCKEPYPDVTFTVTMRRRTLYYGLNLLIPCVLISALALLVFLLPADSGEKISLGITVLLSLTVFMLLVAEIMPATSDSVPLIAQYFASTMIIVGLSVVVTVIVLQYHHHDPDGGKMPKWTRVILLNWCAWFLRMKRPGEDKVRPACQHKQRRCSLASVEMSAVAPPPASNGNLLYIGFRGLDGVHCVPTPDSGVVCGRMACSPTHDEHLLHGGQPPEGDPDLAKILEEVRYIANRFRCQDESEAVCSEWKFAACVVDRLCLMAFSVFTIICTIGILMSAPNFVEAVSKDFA
T3 sequence (P43681 29-627 limits assumed): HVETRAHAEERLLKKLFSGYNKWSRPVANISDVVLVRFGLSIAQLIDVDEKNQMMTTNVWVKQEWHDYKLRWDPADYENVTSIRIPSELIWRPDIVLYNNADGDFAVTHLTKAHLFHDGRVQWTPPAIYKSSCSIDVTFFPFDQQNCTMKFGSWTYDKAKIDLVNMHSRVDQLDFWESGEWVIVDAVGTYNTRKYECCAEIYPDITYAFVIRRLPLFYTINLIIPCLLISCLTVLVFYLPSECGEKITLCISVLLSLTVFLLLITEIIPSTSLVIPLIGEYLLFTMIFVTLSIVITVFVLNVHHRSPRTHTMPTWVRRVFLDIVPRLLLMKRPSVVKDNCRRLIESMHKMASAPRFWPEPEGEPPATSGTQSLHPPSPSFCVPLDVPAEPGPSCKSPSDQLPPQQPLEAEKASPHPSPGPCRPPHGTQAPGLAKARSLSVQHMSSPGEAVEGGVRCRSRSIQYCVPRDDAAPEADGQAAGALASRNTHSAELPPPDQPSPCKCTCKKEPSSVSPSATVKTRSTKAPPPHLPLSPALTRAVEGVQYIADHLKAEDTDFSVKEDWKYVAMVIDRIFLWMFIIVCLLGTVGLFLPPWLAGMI
T3 sequence (P17787 26-502): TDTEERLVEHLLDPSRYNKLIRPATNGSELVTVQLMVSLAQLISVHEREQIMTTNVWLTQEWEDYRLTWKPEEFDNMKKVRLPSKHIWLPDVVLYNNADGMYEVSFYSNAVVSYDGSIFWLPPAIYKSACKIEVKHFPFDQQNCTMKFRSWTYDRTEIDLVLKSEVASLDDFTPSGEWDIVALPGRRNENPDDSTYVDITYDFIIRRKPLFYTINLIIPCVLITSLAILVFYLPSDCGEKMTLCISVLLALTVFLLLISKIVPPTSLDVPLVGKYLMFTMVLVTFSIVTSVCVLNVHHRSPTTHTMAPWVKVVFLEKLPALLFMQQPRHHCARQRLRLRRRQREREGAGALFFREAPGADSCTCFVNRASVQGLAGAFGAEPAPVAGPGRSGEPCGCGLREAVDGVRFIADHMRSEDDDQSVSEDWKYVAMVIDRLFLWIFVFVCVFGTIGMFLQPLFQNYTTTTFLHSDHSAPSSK
T5 sequence (P43681 29-627 limits assumed): as the sequence (P43681 29-627 limits assumed) above
T5 sequence (Q15825 26-494): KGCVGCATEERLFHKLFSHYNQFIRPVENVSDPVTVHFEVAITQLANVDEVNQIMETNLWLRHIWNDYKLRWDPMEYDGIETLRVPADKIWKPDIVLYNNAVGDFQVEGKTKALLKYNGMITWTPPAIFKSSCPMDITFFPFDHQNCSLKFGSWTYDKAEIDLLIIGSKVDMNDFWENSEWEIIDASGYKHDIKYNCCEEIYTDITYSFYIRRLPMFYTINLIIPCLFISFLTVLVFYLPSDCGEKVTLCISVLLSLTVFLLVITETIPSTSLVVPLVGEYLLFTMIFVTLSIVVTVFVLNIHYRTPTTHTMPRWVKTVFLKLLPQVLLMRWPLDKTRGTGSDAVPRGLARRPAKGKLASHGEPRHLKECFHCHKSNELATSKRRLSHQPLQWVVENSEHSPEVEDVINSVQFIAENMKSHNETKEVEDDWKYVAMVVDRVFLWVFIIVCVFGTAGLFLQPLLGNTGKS
T5 sequence (P17787 26-502): as the sequence (P17787 26-502) above
T2 sequence (P32297 32-505): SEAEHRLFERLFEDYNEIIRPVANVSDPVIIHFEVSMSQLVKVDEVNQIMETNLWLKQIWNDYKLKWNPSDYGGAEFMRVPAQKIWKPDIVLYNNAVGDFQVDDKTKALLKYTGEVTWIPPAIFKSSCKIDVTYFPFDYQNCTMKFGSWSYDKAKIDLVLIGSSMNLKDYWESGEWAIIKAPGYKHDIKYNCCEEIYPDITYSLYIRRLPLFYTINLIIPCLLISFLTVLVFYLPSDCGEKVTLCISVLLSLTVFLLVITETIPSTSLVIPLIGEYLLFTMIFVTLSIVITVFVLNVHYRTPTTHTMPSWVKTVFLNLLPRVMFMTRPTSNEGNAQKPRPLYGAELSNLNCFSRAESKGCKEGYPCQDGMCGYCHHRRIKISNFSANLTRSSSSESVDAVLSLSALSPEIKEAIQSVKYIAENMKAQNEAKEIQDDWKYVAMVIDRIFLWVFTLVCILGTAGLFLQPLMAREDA
T2 sequence (P30532 23-468 partner): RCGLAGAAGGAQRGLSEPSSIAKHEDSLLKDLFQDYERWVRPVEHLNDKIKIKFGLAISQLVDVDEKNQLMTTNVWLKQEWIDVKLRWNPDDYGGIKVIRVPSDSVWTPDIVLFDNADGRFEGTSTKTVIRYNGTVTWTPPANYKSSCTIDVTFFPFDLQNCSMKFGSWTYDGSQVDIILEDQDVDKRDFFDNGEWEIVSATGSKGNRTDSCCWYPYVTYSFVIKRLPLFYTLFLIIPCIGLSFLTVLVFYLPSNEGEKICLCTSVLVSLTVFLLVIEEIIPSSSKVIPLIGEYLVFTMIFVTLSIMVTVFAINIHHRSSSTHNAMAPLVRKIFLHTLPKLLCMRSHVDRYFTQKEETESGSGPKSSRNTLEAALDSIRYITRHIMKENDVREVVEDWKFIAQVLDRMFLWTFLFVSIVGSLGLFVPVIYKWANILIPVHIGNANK
T2 sequence (P30926 22-498): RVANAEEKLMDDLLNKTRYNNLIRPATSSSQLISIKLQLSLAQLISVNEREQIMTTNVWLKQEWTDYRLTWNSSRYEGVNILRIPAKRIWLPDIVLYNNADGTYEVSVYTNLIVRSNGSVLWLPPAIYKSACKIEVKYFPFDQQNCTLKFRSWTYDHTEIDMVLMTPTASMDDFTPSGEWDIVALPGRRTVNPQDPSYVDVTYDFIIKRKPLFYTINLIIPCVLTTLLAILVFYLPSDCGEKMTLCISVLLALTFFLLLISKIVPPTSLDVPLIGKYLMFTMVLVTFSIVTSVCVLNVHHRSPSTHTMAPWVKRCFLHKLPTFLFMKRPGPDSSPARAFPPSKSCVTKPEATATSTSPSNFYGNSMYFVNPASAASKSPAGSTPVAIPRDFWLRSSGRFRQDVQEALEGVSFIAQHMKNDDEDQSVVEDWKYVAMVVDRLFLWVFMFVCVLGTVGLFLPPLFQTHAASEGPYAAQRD
T6 sequence (P32297 32-505): as the sequence (P32297 32-505) above
T6 sequence (P30926 22-498): as the sequence (P30926 22-498) above
T4 sequence (Q15825 26-494): as the sequence (Q15825 26-494) above
T4 sequence (P17787 26-502): as the sequence (P17787 26-502) above
T7 sequence (P32297 32-505): as the sequence (P32297 32-505) above
T7 sequence (P17787 26-502): as the sequence (P17787 26-502) above

Row | Compound | agonist characterisation at nAChR subtype alpha7 (nAChR subtype alpha7 [1]) | agonist characterisation at nAChR subtype alpha3alpha5beta4 [2] | agonist characterisation at nAChR subtype alpha4beta2 [3] | agonist characterisation at nAChR subtype alpha6beta2 [4] | agonist characterisation at nAChR subtype alpha4alpha6beta2 [5] | agonist characterisation at nAChR subtype alpha3beta4 [6] | agonist characterisation at nAChR subtype alpha3beta2 [7] | evoked current as % of the maximal ACh-evoked current (nAChR subtype alpha7 [8]) [%]
1 | O=C(O)C(O)C(O)C(=O)O.c1cnc2cc3c(cc2n1)C1CNCC3C1 [Varenicline] | full agonist | partial agonist | partial agonist | partial agonist | partial agonist | partial agonist |  | 
2 | C(=C\[C@H]1CCNC1)/c1cncnc1 [Compound 1, (R)-5-((E)-2-pyrrolidin-3-ylvinyl)pyrimidine] | weak partial agonist | full agonist | full agonist |  | full agonist | full agonist | partial agonist | 
3 | C(=C\[C@H]1CCNC1)/c1cncnc1.O=C(O)CC(O)(CC(=O)O)C(=O)O [compound 1 citrate, (R)-5-((E)-2-pyrrolidin-3-ylvinyl)pyrimidine mono-citrate] |  |  |  |  |  |  |  | 25
